Test results: article PMC13358776, “Discovery of Two GSK3β Inhibitors from Sophora flavescens Ait. using Structure-based Virtual Screening and Bioactivity Evaluation” (Current Computer-Aided Drug Design, 2024)

Target: T1, GSK3β (Homo sapiens, UniProt P49841)
T1 construct: gene GSK3B
Experiment: Kinase-Glo Plus luminescent enzymatic assay, […] ATP
Format: biochemical

T1 sequence (P49841 whole entry): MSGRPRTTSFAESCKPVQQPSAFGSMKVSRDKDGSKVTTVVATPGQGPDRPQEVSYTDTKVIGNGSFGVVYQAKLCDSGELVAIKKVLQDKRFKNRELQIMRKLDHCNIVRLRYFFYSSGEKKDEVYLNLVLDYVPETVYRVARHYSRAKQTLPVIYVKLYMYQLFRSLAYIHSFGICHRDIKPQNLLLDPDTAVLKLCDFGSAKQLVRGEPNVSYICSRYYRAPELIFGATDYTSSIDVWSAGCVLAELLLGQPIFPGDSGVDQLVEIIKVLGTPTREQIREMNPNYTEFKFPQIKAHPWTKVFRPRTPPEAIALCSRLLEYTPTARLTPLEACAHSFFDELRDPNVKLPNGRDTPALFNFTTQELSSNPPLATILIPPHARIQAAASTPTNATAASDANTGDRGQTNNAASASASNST

## kushenol F [MOL006617]
  IC50: 4.96 ± 1.29 µM
